Results taken from patent US6812025B2, “Two hybrid assay that detects HIV-1 reverse transcriptase dimerization” (priority 2000, dated 2004).

Tests used:
p66-His and GST-p51 = p66-His and GST-p51 (Human immunodeficiency virus type 1 group M subtype B, UniProt P04585); type: binding, HIV-1; details: for enhancement of dimerization of GST-p51 and p66-His in vitro: bacterial lysates, 1-1000 fold molar excess of drug, overnight
Method: Cells were induced and then lysed by the addition of 1 mg/ml of lysozyme to 1 ml of lysis buffer [50 mM sodium phosphate buffer (pH 7.8), 500 mM NaCl, 0.5% Nonidet P-40, 5 mM DTT, and 1 μg/ml each of pepstatin A, aprotinin and leupeptin] and clarified. Lysates were combined and incubated for 16 hrs at 4° C. The heterodimer was captured on Glutathione Sepharose 4B beads and unbound subunits were removed by washing with lysis buffer. Heterodimer bound to beads were resolved by SDS/PAGE. For quantification of RT activity, dimers were eluted from beads with 10 mM reduced glutathione in 50 mM Tris (pH 8.0). Samples were assayed for DNA polymerase activity on homopolymeric template-primers for various times, and the activity was determined from the initial slope of the linear phase of the time course.

p66/p51 heterodimer [1] = target: T1, p66/p51 heterodimer (Human immunodeficiency virus type 1 group M subtype B, UniProt P12497); test: Y2H system, preliminary tests of TSAO on heterodimerization; type: cell-based, HIV-1; details: data not shown
T1 construct: The enzyme is a heterodimer of p66 and p51 subunits
Method: (§1) Transformation of yeast and the qualitative β-galactosidase (β-gal) colony lift assay were as published (19). Quantification of protein-protein interactions was determined using the β-gal liquid assay performed on permeabilized yeast grown from three independent transformants using orthonitrophenyl-β-D-galactopyranoside as substrate (19).
To date, there are no HIV-1 RT dimerization inhibitors being used in the clinic. Nevertheless, there are several reports of HIV-1 and HIV-2 RT dimerization inhibitors based on peptides representing the conserved tryptophan repeat region of RT (32, 37). […] However, the possibility that the drug is not taken up by yeast cannot be ruled out. The availability of a Y2H assay for RT dimerization will facilitate the screening for other such inhibitors of this process according to the methods set forth herein.

p66/p51 heterodimer [2] = target: T1, p66/p51 heterodimer; details: cited from earlier work
[3] = target: p66 and p51 subunits of the HIV-1 RT (Human immunodeficiency virus type 1 group M subtype B, UniProt P12497); test: Y2H RT heterodimerization assay measuring effect of NNRTIs on b-gal activity (wild-type lexA87-66 + Gal4AD-51); type: cell-based; details: for enhancement of b-gal activity (relative potency): yeast expressing lexA87-66 and Gal4AD-51, drug added to culture medium
Method: as §1
Yeast and bacterial strains were as described previously (22). Transformation of yeast, the qualitative b-gal colony lift assay and the quantitative b-gal liquid assay were as previously described (22).
CTY10-5d transformed constructs expressing p66 bait and p51 prey fusions were grown overnight to stationary phase in synthetic complete medium without histidine and leucine and containing 2% glucose (SC-His-Leu). […] Yeast were grown with aeration at 30° C. to OD600=0.5. The equivalent of 1 OD600 unit was pelleted for each treatment and subjected to a quantitative b-gal liquid assay.
To test the effects of NNRTIs on the association of the RT polypeptides we used a yeast genetic assay that measures RT heterodimerization (22). […] To test for the effects of the NNRTIs on this interaction, 10 drugs representing 7 different NNRTI classes were added to the culture medium during growth of the yeast and b-gal levels were determined.

HIV-1 = details: cited from earlier work
HIV-1 RT = HIV-1 RT (Human immunodeficiency virus type 1 group M subtype B, UniProt P12497); test: Exogenous RT assay (RT inhibitory activity); type: biochemical; details: results not shown
[4] = target: T2, lexA87-66L234A and Gal4AD-HA-51L234A (Human immunodeficiency virus type 1 group M subtype B, UniProt P04585, L821A); type: cell-based, HIV-1; details: yeast grown in efavirenz (1.6 μM) or UC781 (16 μM), compared to no drug
T2 construct: Yeast expressing p66 bait and p51 prey fusions containing the L234A mutation; expressed in transfected cells; host or cells: Saccharomyces cerevisiae CTY10-5d
Source text: Samples were resolved by SDS-PAGE. The leXA87-66 fusion protein was probed using monoclonal antibodies 7E5 which specifically detects p66 (31).
Hemagglutinin (HA) antibodies were used to immunoprecipitate the p51 prey and the presence of any bound p66 bait was then detected using anti-p66 specific antibodies. For coimmunoprecipitation of the p66 bait fusions, samples were divided into two with one part processed without added NNRTI while the other was maintained in drug at the same concentration used during growth of yeast.

RT heterodimer = target: T3, RT heterodimer (Human immunodeficiency virus type 1 group M subtype B, UniProt P12497); details: cited from earlier work
T3 construct: The enzyme is a heterodimer of p66 and p51 subunits

lexA87 and Gal4AD = target: T4, lexA87 and Gal4AD (UniProt P04386+P0A7C2); test: Y2H specificity control, empty vectors pSH2-1 and pGADNOT; type: cell-based; details: serial dilutions, up to 15 μM of drug; data not shown
T4 construct: expressed in transfected cells; host or cells: Saccharomyces cerevisiae (yeast reporter strain)
T4 sequence (P0A7C2 1-87): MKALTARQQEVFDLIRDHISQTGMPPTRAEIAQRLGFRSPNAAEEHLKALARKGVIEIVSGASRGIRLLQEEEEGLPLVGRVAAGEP
T4 sequence (P04386 768-881): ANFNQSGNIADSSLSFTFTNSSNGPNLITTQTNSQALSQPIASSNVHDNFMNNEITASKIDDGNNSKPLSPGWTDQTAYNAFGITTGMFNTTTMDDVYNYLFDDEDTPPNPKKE
Source text: The specificity of the b-gal enhancement by NNRTIs was investigated. […].

In the case of “2′, 5′-bis-O-(tert-butylidimethylsilyl)-3′-spiro-5″-4″-amino-1′, 2″-oxothiole-2″,2″-dioxide)]-b-D-pentofuranosyl [TSAO]”, the “effect on heterodimerization in in vitro binding assays” value (p66-His and GST-p51; preliminary tests, data not shown) is given as “reduce heterodimerization”, the “effect on β-gal activity in the Y2H system” value (p66/p51 heterodimer [1]) is given as “no inhibition of β-gal activity” and the “destabilization of the p66/p51 heterodimer” value (p66/p51 heterodimer [2]) is given as “destabilize the p66/p51 heterodimer”.
For COc1ccc2c(c1)N(C(=O)OC(C)C)[C@@H](CSC)C(=S)N2 [HBY 097], the “enhancement of b-gal activity (relative potency)” value (shortened to “enhancement … (relative potency)”) [3] is given as “most potent” and the “inhibition of HIV-1 replication in vitro” value (HIV-1) is given as “extremely potent inhibitors of HIV-1 replication in vitro”.
For CCn1c(=O)c(C)cn([C@@H]2O[C@H](CO[Si](C)(C)C(C)(C)C)C3(OS(=O)(=O)C=C3N)[C@H]2O[Si](C)(C)C(C)(C)C)c1=O (stereo partly drawn) [TSAOe^3T], the “destabilization of the p66/p51 heterodimer” value (p66/p51 heterodimer [2]) is listed as “more modest destabilization only detectable in the presence of denaturants”.
For Cc1occc1C(=S)Nc1ccc(Cl)c(/C=N/OC(C)(C)C)c1 [UC10], the “enhancement of dimerization of GST-p51 and p66-His in vitro” value (from here on “enhancement of dimerization … in vitro”) (p66-His and GST-p51) was “poor dimerization inducers”.
In the case of CC(C)OC(=O)c1cc(NC(=S)OC(C)C)ccc1Cl [UC38], the “concentration of drug that mediates a 5-fold increase in b-gal activity (rank)” value ([3]; results not shown) is reported as “least active” and the “RT inhibitory activity (50% inhibitory concentration), rank” value (HIV-1 RT) is reported as “least active”.
With CC(C)=CCOc1cc(NC(=S)c2ccoc2C)ccc1Cl [UC781] the “enhancement … (relative potency)” value [3] was “second most potent”, the “amount of p66 bait coimmunoprecipitated with p51 prey (heterodimer formation), L234A” value [4] was “not for the L234A mutant” and the “enhancement of dimerization … in vitro” value (p66-His and GST-p51) was “poor dimerization inducers”. The “binding to the RT heterodimer” value (RT heterodimer) was “bind very tightly”, the “dissociation rates (koff)” value (RT heterodimer) was “very slow dissociation rates” and the “inhibition of HIV-1 replication in vitro” value (HIV-1) was “extremely potent inhibitors of HIV-1 replication in vitro”.
In the case of CC(C)Nc1cccnc1N1CCN(C(=O)c2cc3cc(NS(C)(=O)=O)ccc3[nH]2)CC1 [delavirdine], the “enhancement … (relative potency)” value [3] is reported as “devoid of b-gal enhancing activity” and the “enhancement of dimerization … in vitro” value (p66-His and GST-p51) is reported as “inactive in vitro”.
With O=C1Nc2ccc(Cl)cc2[C@@](C#CC2CC2)(C(F)(F)F)O1 [efavirenz] the “b-gal activity with empty vectors” value (lexA87 and Gal4AD) was “no increase in b-gal activity”.
